Some test systems named below: ACHN renal; HT29 colon; NCI-H23 lung; UACC-62 melanoma; SW-620 colon; OVCAR-3 ovarian; HOP-62 NSCLC; U251 CNS.
What all share (test): inhibition of tumour cell growth, NCI panel, 48 h

Molecules are shown by their SMILES. Several values for one entry are separate records, joined by “and”; a condition that tells them apart may be missing. Identical values can stand only once.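 Exposure lasted 48 hours, with cells grown in 96-well plates and compounds tested at five concentrations. GI50 = concentration required for 50% inhibition of growth. The concentration for full growth arrest is given as TGI.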

For `COc1cc2c3c(n(CCCN)c(=O)c2cc1OC)-c1ccc([N+](=O)[O-])cc1C3=O`, the GI50 in the experiment on ACHN renal is 5.2 µM; with HT29 colon, 5.07 µM; in the experiment with NCI-H23 lung it was 5.13 µM; with UACC-62 melanoma, 11.5 µM; in the experiment on SW-620 colon, 2.12 µM; with OVCAR-3 ovarian it was 16.5 µM. Further, the figures for the GI50 in the experiment with HOP-62 NSCLC and with U251 CNS were 0.613 µM and 4.94 µM, respectively. The TGI in the experiment with ACHN renal was 16.7 µM; with HT29 colon, 21.4 µM; with NCI-H23 lung, 25.1 µM; with UACC-62 melanoma, 25.1 µM; with SW-620 colon it was 19.1 µM; in the experiment on OVCAR-3 ovarian it was 37.5 µM. Further, the TGI came out at 2.26 µM in the experiment with HOP-62 NSCLC and 19.8 µM in the experiment with U251 CNS.

As for `c1ccc(-c2nn3c(c2-c2ccnc4cc(OCCN5CCOCC5)ccc24)CCC3)nc1`, the GI50 was 36.3 µM in the experiment on ACHN renal; 30.3 µM in the experiment with HT29 colon; greater than 80.6 µM with NCI-H23 lung; greater than 100 µM in the experiment on UACC-62 melanoma; 73.2 µM in the experiment with SW-620 colon; greater than 69.9 µM in the experiment on OVCAR-3 ovarian. Besides, the GI50 with HOP-62 NSCLC was 99.4 µM; in the experiment on U251 CNS, 97.3 µM. For the same molecule, the TGI in the experiment on ACHN renal, in the experiment with HT29 colon, in the experiment on NCI-H23 lung, in the experiment on UACC-62 melanoma, in the experiment on SW-620 colon and with OVCAR-3 ovarian was greater than 100 µM each time. In addition, the TGI in the experiment on HOP-62 NSCLC and with U251 CNS was greater than 100 µM in each case.

Regarding `N#C/C(=C/C=C/c1ccco1)C(N)=O`, the TGI in the experiment on ACHN renal, in the experiment with HT29 colon, in the experiment on SW-620 colon, in the experiment on OVCAR-3 ovarian, in the experiment on HOP-62 NSCLC and in the experiment on U251 CNS was greater than 10 µM each time.

As for `COc1ccc(/C=C(/c2ccccc2)[N+](=O)[O-])c(OC)c1`, the GI50 in the experiment with ACHN renal is 1.49 µM; in the experiment on HT29 colon, 2.88 µM; in the experiment with NCI-H23 lung, 1.93 µM; with UACC-62 melanoma it was 1.22 µM; in the experiment on SW-620 colon it was 1.73 µM; in the experiment with OVCAR-3 ovarian, 1.69 µM. For the same molecule, the figures for the GI50 in the experiment with HOP-62 NSCLC and with U251 CNS were 2.42 µM and 1.48 µM, respectively. The TGI worked out at 2.81 µM with ACHN renal; 10.3 µM with HT29 colon; 4.76 µM in the experiment with NCI-H23 lung; 2.7 µM with UACC-62 melanoma; 4.08 µM in the experiment with SW-620 colon; 3.09 µM in the experiment on OVCAR-3 ovarian. Also, the TGI with HOP-62 NSCLC stood at 4.77 µM; with U251 CNS, 3.15 µM.

Take `C=C(C)[C@@H]1CCC=C2CC[C@]3(C)[C@H](CC[C@@H]4[C@@]5(C)CCCNC(C)(C)[C@@H]5CC[C@]43C)[C@H]21`: the GI50 with ACHN renal is 1.85 µM; in the experiment on UACC-62 melanoma it was 1.92 µM; with SW-620 colon, 1.84 µM; in the experiment on OVCAR-3 ovarian, 1.8 µM; in the experiment with U251 CNS, 1.69 µM. Besides, the TGI with ACHN renal came to 3.25 µM; in the experiment with UACC-62 melanoma it was 3.84 µM; in the experiment on SW-620 colon, 3.59 µM; in the experiment with OVCAR-3 ovarian it was 3.29 µM; in the experiment with U251 CNS, 3.12 µM.

`O=[N+]([O-])c1cc[n+]([O-])c2ccccc12`: the GI50 in the experiment on ACHN renal was 0.142 µM; in the experiment on HT29 colon, 0.246 µM; in the experiment with NCI-H23 lung, 0.328 µM; with UACC-62 melanoma it was 0.231 µM; in the experiment on SW-620 colon, 0.106 µM; with OVCAR-3 ovarian, 0.197 µM. For the same molecule, the figures for the GI50 in the experiment on HOP-62 NSCLC and in the experiment on U251 CNS were 0.221 µM and 0.298 µM, respectively. The TGI in the experiment with ACHN renal was determined as 0.512 µM; in the experiment with HT29 colon, 1.09 µM; with NCI-H23 lung, 1.56 µM; in the experiment with UACC-62 melanoma it was 0.698 µM; in the experiment with SW-620 colon, 0.56 µM; in the experiment with OVCAR-3 ovarian, 0.471 µM. Moreover, the TGI in the experiment with HOP-62 NSCLC amounted to 1.13 µM; with U251 CNS it was 1.3 µM.

Regarding `O=C(O)C[C@H](O)C[C@H](O)/C=C/c1c(C2CC2)nc2ccccc2c1-c1ccc(F)cc1`, the GI50 in the experiment on HT29 colon was 62.2 µM and 8.24 µM; in the experiment on NCI-H23 lung, 8.75 µM and 3.31 µM; with UACC-62 melanoma it was 2.3 µM and 0.45 µM; with SW-620 colon, 18.6 µM and 4.92 µM; in the experiment with OVCAR-3 ovarian, 16.8 µM and 12.1 µM; with HOP-62 NSCLC, 15 µM and 6.22 µM. Also, the GI50 with U251 CNS was 1.62 µM and 0.302 µM. The TGI with HT29 colon, with NCI-H23 lung, in the experiment with UACC-62 melanoma, in the experiment on SW-620 colon, in the experiment with OVCAR-3 ovarian and with HOP-62 NSCLC was greater than 100 µM in each case. Also, the TGI with U251 CNS was greater than 100 µM.

`O=C(CCN1CCCC1)Nc1ccc2c(NCc3ccccc3)c3ccccc3nc2c1`: the GI50 with ACHN renal is 0.465 µM; in the experiment on HT29 colon, 0.324 µM; in the experiment on NCI-H23 lung, 0.392 µM; with UACC-62 melanoma, 0.454 µM; with SW-620 colon it was 0.316 µM; in the experiment on OVCAR-3 ovarian, 0.495 µM. The GI50 in the experiment with HOP-62 NSCLC is 0.471 µM; with U251 CNS, 0.395 µM. In addition, the TGI in the experiment with ACHN renal is 2.22 µM; with HT29 colon it was 1.7 µM; in the experiment on NCI-H23 lung, 1.57 µM; with UACC-62 melanoma, 1.67 µM; in the experiment with SW-620 colon, 1.44 µM; in the experiment on OVCAR-3 ovarian it was 1.97 µM. For the same molecule, the TGI came out at 2.51 µM with HOP-62 NSCLC and 1.73 µM with U251 CNS.

As to `CCOc1ccc2c(-c3ccnc(Nc4cc(OC)cc(C(F)(F)F)c4)n3)cnn2n1`, the GI50 in the experiment on ACHN renal is greater than 25 µM; in the experiment with HT29 colon, 8.4 µM; with NCI-H23 lung, greater than 21.9 µM; in the experiment with UACC-62 melanoma it was greater than 10.9 µM; in the experiment on SW-620 colon it was 13 µM; in the experiment with OVCAR-3 ovarian it was 6.2 µM. Besides, the GI50 in the experiment on HOP-62 NSCLC is greater than 25 µM; with U251 CNS, greater than 13 µM. For the same molecule, the TGI in the experiment on ACHN renal, in the experiment on HT29 colon, in the experiment on NCI-H23 lung, in the experiment on UACC-62 melanoma, in the experiment on SW-620 colon and in the experiment on OVCAR-3 ovarian was greater than 25 µM throughout. The TGI with HOP-62 NSCLC and with U251 CNS was greater than 25 µM each time.

In the case of `NC(=N\N=C/c1ccc(O)cc1)/C(N)=N\N=C/c1ccc(O)cc1`, the GI50 is 3.85 µM with ACHN renal; greater than 100 µM in the experiment on HT29 colon; greater than 100 µM in the experiment on NCI-H23 lung; 2.22 µM in the experiment with UACC-62 melanoma; greater than 23.6 µM in the experiment with SW-620 colon; greater than 100 µM in the experiment with OVCAR-3 ovarian. Besides, the results for the GI50 in the experiment on HOP-62 NSCLC and in the experiment with U251 CNS were 20.7 µM and 19.5 µM, respectively. Besides, the TGI with ACHN renal was greater than 100 µM; in the experiment with HT29 colon, greater than 100 µM; in the experiment with NCI-H23 lung, greater than 100 µM; in the experiment on UACC-62 melanoma it was greater than 52 µM; with SW-620 colon it was greater than 100 µM; with OVCAR-3 ovarian, greater than 100 µM. In addition, the results for the TGI in the experiment with HOP-62 NSCLC and with U251 CNS were 67.1 µM and greater than 100 µM, respectively.

The values are drawn from PubChem BioAssay (NCI).
